The record followed here is publication doi:10.1101/2023.02.25.530034v1 (biorxiv, 2023).

Structures are written as SMILES.

The target of one assay is T1, rhBCAT2 (Homo sapiens, UniProt O15382).
T1 sequence (O15382 28-392): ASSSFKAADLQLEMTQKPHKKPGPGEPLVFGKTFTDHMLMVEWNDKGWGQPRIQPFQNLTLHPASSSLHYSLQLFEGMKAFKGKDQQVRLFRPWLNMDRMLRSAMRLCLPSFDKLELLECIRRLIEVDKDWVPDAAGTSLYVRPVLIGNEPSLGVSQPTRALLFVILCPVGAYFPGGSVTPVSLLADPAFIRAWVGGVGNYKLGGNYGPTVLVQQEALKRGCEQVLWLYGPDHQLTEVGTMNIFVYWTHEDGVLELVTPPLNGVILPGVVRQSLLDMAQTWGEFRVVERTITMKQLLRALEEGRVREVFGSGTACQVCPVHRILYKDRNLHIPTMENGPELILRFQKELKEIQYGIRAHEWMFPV
Nature of the assay: aminotransferase activity assay with leucine dehydrogenase. Type of assay: biochemical.

The target in another assay is T2, rhBCAT1 (Homo sapiens, UniProt P54687).
T2 sequence (P54687 1-386): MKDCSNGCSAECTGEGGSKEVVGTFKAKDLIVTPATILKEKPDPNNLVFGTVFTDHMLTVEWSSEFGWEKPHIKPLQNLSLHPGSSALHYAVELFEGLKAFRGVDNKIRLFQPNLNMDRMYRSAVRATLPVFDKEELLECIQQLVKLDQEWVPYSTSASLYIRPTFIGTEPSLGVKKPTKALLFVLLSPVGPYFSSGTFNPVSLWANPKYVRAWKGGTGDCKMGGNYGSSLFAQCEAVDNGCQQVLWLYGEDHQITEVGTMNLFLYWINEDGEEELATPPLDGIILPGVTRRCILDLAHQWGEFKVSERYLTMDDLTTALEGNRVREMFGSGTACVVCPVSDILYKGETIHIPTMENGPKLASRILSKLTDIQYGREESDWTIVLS
The description is as above. Type of assay: biochemical.

On to `O=C(O)CCC(C(=O)c1ccc(Br)cc1)c1ccccc1` (centres unmarked) [ERG245], for which the IC50 was more than 1000 nM on rhBCAT2 and approximately 0.5 nM against rhBCAT1.
